According to patent US8785614B2, “Aberrantly methylated genes in pancreatic cancer” (The Johns Hopkins University, priority 2003, dated 2014):
Read-outs that look alike come from different tables or passages of the source.

Test system: AsPC1 pancreatic cancer cell line
Protocol: Mock-treated cells were cultured with the equivalent volume of PBS alone.
Total RNA was isolated from cultured cells using TRIZOL reagent (invitrogen, Carlsbad, Calif.) and purified using RNeasy Mini Kit (Qiagen, Valencia, Calif.). First- and second-stranded cDNA was synthesized from 10 μg of total RNA using 17-dT) primer (Genset Corp., La Jolla, Calif.) and Superscript Choice system (Invitrogen). Labeled cRNA was synthesized from the purified cDNA by in vitro transcription reaction using the BioArray High Yield RNA Transcript Labeling Kit (Enzo Diagnostics, Inc., Farmingdale, N.Y.) at 37° C. for 6 h. The cRNA was fragmented at 94° C. for 35 min. in a fragmentation buffer [40 mM Tris-acetate @ pH 8.1, 100 mM potassium acestate, and 30 mM magnesium acetate]. The fragmented cRNA was then hybridized to the Human Genome U133A chips (Affymetrix, Santa Clara, Calif.) with 18462 unique gene/EST transcripts at 45° C. for 16 h. The washing and staining procedure was performed in the Affymetrix Fluidics Station according to the manufacturer's instructions. The probes were then scanned using a laser scanner, and signal intensity for each transcript (background-subtracted and adjusted for noise) was calculated using Microarray Suite Software 5.0 (Affymetrix).
Fold change analysis of signal intensities obtained from oligonucleotide microarrays between the two treatment groups was performed using Data Mining software (Afrymetrix).
The global changes in gene expression proxies induced by 5Aza-dC in four pancreatic cancer cell lines (AsPCl, Hs766T, MiaPaCa2, and Panel) were determined using the Afrymetrix U133 oligonucleotide microarrays with 18462 probes sets (transcripts) covering over 13000 full-length sequences of known genes.

Nc1ncn([C@H]2C[C@H](O)[C@@H](CO)O2)c(=O)n1 [5Aza-dC, 5 aza 2′ deoxycytidine]
Fold-change after 5Aza-dC treatment (ANGPT2, AsPC1): 6.15 fold | transcripts with >5-fold increase, share of the 18462 transcripts analyzed (AsPC1): 1.2% | transcripts with substantial increase (>5-fold) in signal intensities (AsPC1, vs mock-treated): 225 transcripts | Fold-change after 5Aza-dC treatment (BARD1, AsPC1): −1.07 fold | Fold-change after 5Aza-dC treatment (BNIP3, AsPC1): 6.12 fold | Fold-change after 5Aza-dC treatment (BST2, AsPC1): 1.97 fold | Fold-change after 5Aza-dC treatment (CACNA1G, AsPC1): 1.83 fold | Fold-change after 5Aza-dC treatment (CCNE2, AsPC1): 1.48 fold | Fold-change after 5Aza-dC treatment (CDKN1A (p21), AsPC1): 2.21 fold | Fold-change after 5Aza-dC treatment (CDKN1C, AsPC1): 0.6 fold | Fold-change after 5Aza-dC treatment (CLDN5, AsPC1): 22.34 fold | Fold-change after 5Aza-dC treatment (CSF1, AsPC1): 1.12 fold | Fold-change after 5Aza-dC treatment (DR3, AsPC1): 1.47 fold | Fold-change after 5Aza-dC treatment (FOXE1, AsPC1): 3.51 fold | Fold-change after 5Aza-dC treatment (GAGE1, AsPC1): −0.54 fold | Fold-change after 5Aza-dC treatment (GAGE4, AsPC1): 15.66 fold | Fold-change after 5Aza-dC treatment (GAGE6, AsPC1): 15.59 fold | Fold-change after 5Aza-dC treatment (GAGE7, AsPC1): 14.08 fold | Fold-change after 5Aza-dC treatment (HOXA1, AsPC1): 25.8 fold | Fold-change after 5Aza-dC treatment (IGF2, AsPC1): 0.55 fold | Fold-change after 5Aza-dC treatment (IL1R1, AsPC1): 7.51 fold | Fold-change after 5Aza-dC treatment (ISG20, AsPC1): −1.12 fold | Fold-change after 5Aza-dC treatment (JPH3, AsPC1): 1.27 fold | Fold-change after 5Aza-dC treatment (KLK10, AsPC1): 1.03 fold | Fold-change after 5Aza-dC treatment (LDOC1, AsPC1): 8.99 fold | Fold-change after 5Aza-dC treatment (LHX1, AsPC1): 5.22 fold | Fold-change after 5Aza-dC treatment (MAGE1, AsPC1): 1.52 fold | Fold-change after 5Aza-dC treatment (MATN1, AsPC1): −1.44 fold | Fold-change after 5Aza-dC treatment (NEFH, AsPC1): 2.94 fold | Fold-change after 5Aza-dC treatment (NPTX2, AsPC1): 13.97 fold | Fold-change after 5Aza-dC treatment (PAX6, AsPC1): 8.94 fold | Fold-change after 5Aza-dC treatment (PDYN, AsPC1): 1.33 fold | Fold-change after 5Aza-dC treatment (PLAT, AsPC1): −1.15 fold | Fold-change after 5Aza-dC treatment (PLEK2, AsPC1): 1.37 fold | Fold-change after 5Aza-dC treatment (SARP2, AsPC1): −1.89 fold | Fold-change after 5Aza-dC treatment (SMARCA1, AsPC1): 7.89 fold | Fold-change after 5Aza-dC treatment (ST14, AsPC1): −1.21 fold | Fold-change after 5Aza-dC treatment (TIMP3, AsPC1): 11.89 fold | Fold-change after 5Aza-dC treatment (TJP2, AsPC1): −1.24 fold | Fold-change after 5Aza-dC treatment (TNF, AsPC1): −1.17 fold | Fold-change after 5Aza-dC treatment (UCHL1, AsPC1): 6.62 fold | Fold-change after 5Aza-dC treatment (WNT7A, AsPC1): 2.7 fold | Fold-change after 5Aza-dC treatment (XAGE-1, AsPC1): 28.59 fold | Fold-change after 5Aza-dC treatment (granulocytemacrophage colony-stimulating factor (M11734), AsPC1): 1.44 fold | Fold-change after 5Aza-dC treatment (interferon, alpha-inducible protein (NM_022873), AsPC1): 4.48 fold | Fold-change after 5Aza-dC treatment (p53-induced protein (PIGII), AsPC1): −1.22 fold | Fold-change after 5Aza-dC treatment (reprimo, AsPC1): 1.66 fold | Fold-change after 5Aza-dC treatment (stratifin (14-3-3 sigma), AsPC1): −1.48 fold | Fold-change after 5Aza-dC treatment (stromal antigen 3 (STAG5), AsPC1): 14.06 fold | Fold-change after 5Aza-dC treatment (testin, AsPC1): −1.23 fold
